Experimental data: PubChem BioAssay (NCI)
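In this assay, cells in 96-well plates receive the compound at five concentrations for 48 hours. Endpoints are linearly interpolated between the surrounding concentrations. TGI is the concentration that stops growth completely.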 *1 amine or outer side, *2 acyl side, *3 side chain or, on linkers, in order; H or OH if unused. Where a SMILES comes first, the peptide text is derived from it. [ ]: non-standard residue; d: D form. The star is where a group is joined. X31 = CC(=O)N(C)SCC(N[*:1])C(=O)[*:2]; Fmoc = O=C(OCC1c2ccccc2-c2ccccc21)*; For = O=C*

Assays:
Experiment in all cases: NCI anticancer screen, dose series, 48 h
RXF 393 renal = test system: RXF 393 renal
MOLT-4 leukemia = test system: MOLT-4 leukemia
SK-MEL-28 melanoma = test system: SK-MEL-28 melanoma
LOX IMVI melanoma = test system: LOX IMVI melanoma
NCI-H522 lung = test system: NCI-H522 lung
NCI-H460 lung = test system: NCI-H460 lung
SF-268 CNS = test system: SF-268 CNS
OVCAR-4 ovarian = test system: OVCAR-4 ovarian
COLO 205 colon = test system: COLO 205 colon
NCI/ADR-RES ovarian = test system: NCI/ADR-RES ovarian

Compound	TGI (RXF 393 renal) [µM]	TGI (MOLT-4 leukemia) [µM]	TGI (SK-MEL-28 melanoma) [µM]	TGI (LOX IMVI melanoma) [µM]	TGI (NCI-H522 lung) [µM]	TGI (NCI-H460 lung) [µM]	TGI (SF-268 CNS) [µM]	TGI (OVCAR-4 ovarian) [µM]	TGI (COLO 205 colon) [µM]	TGI (NCI/ADR-RES ovarian) [µM]
COC(=O)CCC(C)[C@H]1CCC2C3C(C[C@H](OC(C)=O)[C@@]21C)[C@@]1(C)CCC2(C[C@H]1C[C@H]3OC(C)=O)OOC1(CCCCC1)OO2 (stereo not given in full)	> 100	> 100	> 100	> 100	60.5	> 100	> 100	50.9	> 100	> 100
Oc1ccc(Cn2c(-c3ccc(O)cc3)nc3ccccc32)cc1	> 100	> 100	> 100	> 100	> 100	> 100	> 100	> 100	> 100	> 100
CC(=O)C1C(=O)C(=O)N(c2ccc(Br)cc2)C1=O (stereo not given)	> 100	> 100	> 100	> 100	> 100	> 100	> 100	> 100	> 100	> 100
CC[C@H](C)[C@H]1NC(=O)[C@@H](NC(=O)[C@@H](CC(C)C)N(C)C(=O)C2CCCN2C(=O)[C@H](C)O)[C@@H](C)OC(=O)[C@H](Cc2ccccc2)N(C)C(=O)[C@@H]2CCCN2C(=O)[C@H](CC(C)C)NC(=O)[C@@H](C)C(=O)[C@H](C(C)C)OC(=O)C[C@@H]1O (stereo not given in full)	0.0179	> 62.5	0.00828	< 0.00625	< 0.00625	< 0.00625	0.00762	0.0078	0.0769	1.6
CC(C)(C)N=c1n(C(C)(C)C)oc(=O)n1-c1ccccc1	> 50	> 50	> 50	> 50	> 50	> 50	> 50	> 50	> 50	> 50
O=C(O)CCc1nc2cc3ccccc3cc2[nH]c1=O	> 100	> 100	> 100	> 100	> 100	> 100	> 100	> 100	> 100	> 100
COc1ccccc1Cn1[nH]c(=O)c2cc([N+](=O)[O-])ccc21	82.6	> 100	> 100	> 100	> 100	> 100	> 100	> 100	> 100	> 100
COC(=O)CCC1(O)C=CC(=O)C=C1	61.5	> 100	60.9	> 100	28.8	> 100	> 100	> 100	40.2	> 100
O=C(O)CO/N=C1/C(c2c(O)[nH]c3ccccc23)=Nc2ccccc21	52.7	> 100	> 100	> 100	> 100	> 100	> 100	> 100	> 100	> 100
COc1cccc(C(=O)N[C@@H]2[C@H](O)[C@@H](CO)O[C@H]2n2cnc3c(N)ncnc32)c1	> 100	> 100	> 100	> 100	> 100	> 100	> 100	> 100	> 100	> 100
CC(=O)/C(=C(/Br)I)c1ccccc1	13.3	20.5	26.5	22.5	3.11	48.3	> 46.3	25	26.4	45
COc1ccccc1N1C(=O)CC(=O)N(C(=O)CCCCCCCCC(=O)N2C(=O)CC(=O)N(c3ccccc3OC)C2=S)C1=S	> 100	> 100	> 100	> 100	> 100	> 100	> 100	> 100	> 100	> 100
COC(=O)C1=NN2c3ccccc3CN([C@@H](C)c3ccccc3)C(=O)[C@H]2[C@@H]1C	> 100	> 100	> 100	> 100	> 100	> 100	> 100	> 100	66.8	> 100
CN1CCCC(C(=O)OCC(=O)C2(O)CCC3C4CCC5=CC(=O)CCC5(C)C4C(O)CC32C)C1 (stereo not given)	23.1	48.4	35.4	30.6	45.3	28.5	46.4	32.5	32.9	55.3
CC(=O)NC1C(OCc2ccccc2)OC(CO)C(O)C1OCC(=O)N1CCCC1C(=O)NC(CCC(=O)NCCCCCNc1c2ccccc2nc2cccc([N+](=O)[O-])c12)C(N)=O (stereo not given)	0.0253	4.55	0.11	0.733	0.25	0.0171	0.0966	3.98	0.039	1.09
CCCCCCC(=O)OC[n+]1cccc(-c2c(COC(=O)NC(C)C)c(COC(=O)NC(C)C)c3n2CCC3)c1	51.5	> 80.7	> 100	69	43.6	> 100	69.9	> 69.1	> 100	> 100
NCCC1([N+](=O)[O-])CCNCC1	> 100	> 100	> 100	> 100	> 100	> 100	> 100	> 100	> 100	> 100

Compound	TGI (RXF 393 renal) [µM]	TGI (MOLT-4 leukemia) [µM]	TGI (SK-MEL-28 melanoma) [µM]	TGI (LOX IMVI melanoma) [µM]	TGI (NCI-H522 lung) [µM]	TGI (NCI-H460 lung) [µM]	TGI (SF-268 CNS) [µM]	TGI (OVCAR-4 ovarian) [µM]	TGI (COLO 205 colon) [µM]	TGI (NCI/ADR-RES ovarian) [µM]
CSc1nc(C)c(CCCl)c(Cl)n1	> 100	> 100	> 100	> 100	49.9	> 100	> 100	> 100	> 100	> 100
CCN1C(=O)CS/C1=N\NC(=O)CSc1nc2ccccc2c(=O)n1CC	> 100	> 100	> 100	> 100	> 100	> 100	> 100	> 100	> 100	> 100
S=C(Nc1cccc(C2(N3CCCCC3)CCCCC2)c1)Nc1cccc(C2(N3CCCCC3)CCCCC2)c1	29.7	42.8	35.3	26.7	41	36.7	> 100	> 100	37.6	> 100
CC(=O)NC(CO)C(=O)NC(Cc1ccc(O)cc1)C(=O)NCC(N)=O (stereo not drawn) (Ac-Ser-Tyr-Gly-NH2; configuration not given here)	> 100	> 100	> 100	> 100	> 100	> 100	> 100	> 100	> 100	> 100
OC1(c2ccc3ccccc3c2)c2c(c3ccccc3c3ccccc23)C2=NCCN21 (stereo not given)	7.68	> 100	6.09	5.41	24.8	> 40.5	29.2	13.9	4.17	5.22
CCCN(CCC)C(=O)c1c(Cl)c2cccnc2n2c(C)cnc12	> 100	> 100	> 100	> 100	> 100	> 100	> 100	> 100	> 100	> 100
c1ccc(CSC(SCc2ccccc2)c2ccc3c(c2)OCO3)cc1	> 10	> 10	> 10	> 10	> 10	> 10	> 10	> 10	> 10	> 10
CCOC(=O)Oc1ccc2c(c1)c(=O)c1c(NCCCN(CC)CC)ccc3nnn2c31	19.8	> 100	33.2	12	19.7	15.2	28.2	20.2	25.1	28.1
CC(C)OP(=O)(OC(C)C)C(Nc1cccc(C(F)(F)F)c1)c1ccccc1 (stereo not given)	> 100	65.5	> 100	> 100	> 100	> 100	> 100	> 100	84	> 100
C=C(CC)C[C@@H]1C[C@]2(C(=O)OC)c3[nH]c4ccccc4c3CCN2C1=O	27.7	> 100	39.9	33.5	36.7	53.6	51.9	> 100	> 100	51.1
CC1(C)CC2(C)ON=C(c3ccccc3)N2c2ccccc2N1 (stereo not given)	54.5	75.6	57.5	33.8	47.3	46.9	48.2	> 100	45.9	74.6
N#CCN(Cc1ccccc1)[C@@H]1CCC[C@]1(O)C#Cc1ccc2c(c1)OCO2	30.3	57.1	33.3	30.9	33.7	36.1	41.1	31.2	32.3	51.8
CC(=O)N(C)SCC(NC(=O)C(Cc1ccccc1)NC(=O)OCC1c2ccccc2-c2ccccc21)C(=O)NC(Cc1ccccc1)C(=O)NC(Cc1cn(C=O)c2ccccc12)C(=O)NC(CCCCNC(=O)OCC1c2ccccc2-c2ccccc21)C(=O)NC(C(=O)NC(CSN(C)C(C)=O)C(=O)NC(C(N)=O)C(C)O)C(C)O (stereo not given) (Fmoc-F[X31]FW(For)K(Fmoc)T[X31]T-NH2; configuration not given here)	72.3	> 100	> 100	> 100	> 100	> 100	> 100	> 100	> 100	> 100
COC(=O)[C@@H]1[C@H](O)CC[C@H]2[C@@]1(C)CC[C@@H](C)[C@]2(COC(C)=O)CC(=O)c1ccoc1	> 50	> 50	> 50	> 50	> 50	> 50	> 50	> 50	> 50	> 50
Cc1nc(Nc2nc3ccccc3[nH]2)[nH]c(=O)c1CCO	> 84.3	> 100	> 100	> 94.7	> 100	> 100	> 100	> 100	> 100	> 100
C=CC[C@H]1[C@H](O[Si](C)(C)C(C)(C)C)C=CC(=O)[C@@H]1CC(=O)OCC	25.7	48	34.6	32	26.1	27.6	28.9	25.2	28.6	24.4
